Legend:
Assay in all cases: relative viability (nuclei count vs DMSO), 5 days (fraction); higher = more cells survive
17-AAG + Olaparib = compound: C=CCNC1=C2C[C@@H](C)C[C@H](OC)[C@H](O)[C@@H](C)/C=C(\C)[C@H](OC(N)=O)[C@@H](OC)/C=C\C=C(/C)C(=O)NC(=CC1=O)C2=O [17-AAG] + O=C(c1cc(Cc2n[nH]c(=O)c3ccccc23)ccc1F)N1CCN(C(=O)C2CC2)CC1 [Olaparib] (partner 8 µM)
Method in brief: (§1)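 Relative viability equals treated-well nuclei counts divided by vehicle-well nuclei counts. Counts came from 4× images of lung cancer cell lines grown in 1536-well plates for 5 days after pin-tool dosing on the day after seeding. Dosing used one drug alone or a fixed anchor-drug dose plus five library-drug doses (not always all listed) in √10 steps, and values are medians of duplicate plates.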

17-AAG + Trametinib = compound: C=CCNC1=C2C[C@@H](C)C[C@H](OC)[C@H](O)[C@@H](C)/C=C(\C)[C@H](OC(N)=O)[C@@H](OC)/C=C\C=C(/C)C(=O)NC(=CC1=O)C2=O [17-AAG] + CC(=O)Nc1cccc(-n2c(=O)n(C3CC3)c(=O)c3c(Nc4ccc(I)cc4F)n(C)c(=O)c(C)c32)c1 [Trametinib] (partner 0.02 µM)
Method in brief: as §1

17-AAG + Pictilisib = compound: C=CCNC1=C2C[C@@H](C)C[C@H](OC)[C@H](O)[C@@H](C)/C=C(\C)[C@H](OC(N)=O)[C@@H](OC)/C=C\C=C(/C)C(=O)NC(=CC1=O)C2=O [17-AAG] + CS(=O)(=O)N1CCN(Cc2cc3nc(-c4cccc5[nH]ncc45)nc(N4CCOCC4)c3s2)CC1 [Pictilisib] (partner 1 µM)
Method in brief: as §1

17-AAG + Bortezomib = compound: C=CCNC1=C2C[C@@H](C)C[C@H](OC)[C@H](O)[C@@H](C)/C=C(\C)[C@H](OC(N)=O)[C@@H](OC)/C=C\C=C(/C)C(=O)NC(=CC1=O)C2=O [17-AAG] + CC(C)C[C@H](NC(=O)[C@H](Cc1ccccc1)NC(=O)c1cnccn1)B(O)O [Bortezomib] (partner 0.002 µM)
Method in brief: as §1

Cell Line	relative viability (17-AAG + Olaparib; first compound 0.00128 µM)	relative viability (17-AAG + Olaparib; first compound 0.004048 µM)	relative viability (17-AAG + Olaparib; first compound 0.0128 µM)	relative viability (17-AAG + Olaparib; first compound 0.04048 µM)	relative viability (17-AAG + Olaparib; first compound 0.128 µM)	relative viability (17-AAG + Trametinib; first compound 0.00128 µM)	relative viability (17-AAG + Trametinib; first compound 0.004048 µM)	relative viability (17-AAG + Trametinib; first compound 0.0128 µM)	relative viability (17-AAG + Trametinib; first compound 0.04048 µM)	relative viability (17-AAG + Trametinib; first compound 0.128 µM)	relative viability (17-AAG + Pictilisib; first compound 0.00128 µM)	relative viability (17-AAG + Pictilisib; first compound 0.004048 µM)	relative viability (17-AAG + Pictilisib; first compound 0.0128 µM)	relative viability (17-AAG + Pictilisib; first compound 0.04048 µM)	relative viability (17-AAG + Pictilisib; first compound 0.128 µM)	relative viability (17-AAG + Bortezomib; first compound 0.00128 µM)	relative viability (17-AAG + Bortezomib; first compound 0.004048 µM)	relative viability (17-AAG + Bortezomib; first compound 0.0128 µM)	relative viability (17-AAG + Bortezomib; first compound 0.04048 µM)	relative viability (17-AAG + Bortezomib; first compound 0.128 µM)
NCI-H2087	0.649	0.216	0.168	0.134	0.129	0.206	0.213	0.184	0.115	0.124	0.867	0.651	0.356	0.229	0.175	0.85	0.674	0.377	0.215	0.137
NCI-H2126	0.895	0.887	0.893	0.762	0.265	0.576	0.568	0.625	0.594	0.443	0.509	0.533	0.492	0.316	0.284	1.09	1.1	0.993	1.06	0.255
NCI-H2228	0.523	0.21	0.127	0.111	0.147	0.378	0.232	0.102	0.113	0.144	0.346	0.153	0.128	0.148	0.102	0.88	0.304	0.137	0.167	0.135
NCI-H2347	0.589	0.607	0.496	0.349	0.341	0.335	0.275	0.351	0.288	0.321	0.671	0.478	0.508	0.717	0.43		0.995	0.871	0.447	0.371
